Columns and labels:
[1] = system: shingles; assay: Case history: shingles; assay type: in vivo, human; conditions: prescription taken, within 1 week
Source text: A person was diagnosed with shingles on the lower jaw and on the scalp. […] The subject was given the lotion of Example 1 with instructions to pre-treat the area with a menthol cream five minutes before applying the treatment cream. Twice daily application to the border of the shingles lesions along the axis of red streaks prevented further expansion of the […] lesions. In areas of blisters that had not ruptured, application of the treatment cream caused the blisters to recede and not rupture. […] Episodes of recurring post-herpetic neuralgia were treated successfully over the next six weeks with the cream giving reduction of redness, itching and pain.

[2] = system: migraine headaches; assay: Case history: migraine headaches; assay type: in vivo, human; conditions: prescription, same subject
Source text: A person experienced stress-induced episodes of migraine headaches five to six times/year, each preceded by a “trigger signal” of slight dizziness or light-headedness. […] The lotion of Example 1 was supplied by the subject. […] No migraine episodes have occurred in the past eight months.

## Nc1nc2c(ncn2COCCO)c(=O)[nH]1 [acyclovir]
[1]
  relief from pain or itching: no relief from pain or itching

## CNS(=O)(=O)Cc1ccc2[nH]cc(CCN(C)C)c2c1 [Sumatriptan]
[2]
  migraine pain relief: slow to relieve the pain
